We go through 31 compounds from patent US8791132B2, “Compounds and methods for treatment of hypertension” (Medivation Technologies, Inc., priority 2011, dated 2014).

Each structure is given as a SMILES string. Like-named read-outs stand apart in the source and are kept apart here.

The target in test [1] is T1, human recombinant adrenergic α1D receptor (Homo sapiens, UniProt P25100).
T1 construct: expressed in transfected cells; host or cells: HEK-293
T1 sequence (P25100 1-572): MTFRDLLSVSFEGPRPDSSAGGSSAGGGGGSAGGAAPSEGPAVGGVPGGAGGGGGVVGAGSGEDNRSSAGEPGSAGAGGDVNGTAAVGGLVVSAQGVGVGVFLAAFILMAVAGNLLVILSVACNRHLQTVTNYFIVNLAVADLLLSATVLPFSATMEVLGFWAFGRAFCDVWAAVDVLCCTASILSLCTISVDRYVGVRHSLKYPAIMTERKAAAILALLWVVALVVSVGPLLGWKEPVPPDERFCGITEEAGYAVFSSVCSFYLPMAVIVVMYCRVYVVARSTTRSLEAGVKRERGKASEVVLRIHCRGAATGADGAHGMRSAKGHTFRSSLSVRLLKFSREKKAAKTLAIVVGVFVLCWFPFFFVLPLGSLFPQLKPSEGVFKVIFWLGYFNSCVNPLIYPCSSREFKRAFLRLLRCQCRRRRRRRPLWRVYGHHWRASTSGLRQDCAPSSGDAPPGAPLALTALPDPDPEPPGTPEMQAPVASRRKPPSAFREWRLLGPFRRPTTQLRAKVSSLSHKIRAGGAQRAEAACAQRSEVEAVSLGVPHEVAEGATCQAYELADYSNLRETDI
The test is described as follows: Radioligand binding, adrenergic α1D ([3H]Prazosin). To be noted: [3H]Prazosin. As for the experimental part: Compounds were incubated with 0.6 nM [3H]Prazosin for 60 min at 25° C. Non-specific binding was estimated in the presence of 10 μM phentolamine. Receptor proteins were filtered and washed, the filters were then counted to determine [3H]Prazosin specifically bound. […] Biochemical assay results are presented as the percent inhibition of specific binding in Table B1.

Test [2] relates to spontaneously hypertensive rats (SHR). The test is described as follows: Blood pressure in spontaneously hypertensive rat (SHR) model of hypertension. The class given is in vivo. As for the experimental part: Male spontaneously hypertensive rats (SHR), approximately 3 months of age and weighting approximately 250 grams were utilized. Free access to standard lab chow for rats and reverse osmosis (RO) water was granted. All aspects of this work, including housing, experimentation and disposal of animals were performed in general accordance with the Guide for the Care and Use of Laboratory Animals (National Academy Press, Washington, D.C., 1996).
The animals were anaesthetized with sodium pentobarbital (50 mg/kg IP). The left carotid artery when compound dosed orally (PO) or subcutaneously (SC); and both left carotid and femoral artery when compound dosed intravenous (i.v.) were cannulated with a polyethylene catheter (38 cm in length; PE60, Portex, Ltd.) connected with a polyurethane tubing (12 cm in length; PU-40, Cat. #BB520-40, Scientific Commodities, Inc.), which was tunneled under the skin and exited through the nape of the neck. The arterial cannula was connected to a pressure transducer through a swivel system, allowing free roaming during continuous recording of mean arterial pressure and heart rate. The animals were housed individually with food and water freely available during recovery. On the following day, the arterial cannula was connected via a Statham (P 23×L) pressure transducer to a NEC/San-Ei amplifier and data acquisition and analysis system (Power Lab 8/SP) for direct mean arterial pressure and heart rate measurements.
The test compounds, dissolved in sterile saline, were administered subcutaneously (SC) or orally (PO), or by intravenous (i.v.) bolus administration in two minutes or the escalating doses of compound administration in every 30 minutes, with each dose and its strength delivered over 2 minutes as shown in the respective figures; the internal standard phentolamine was given by oral gavage. The control group received vehicle alone. Immediately before (−10 min and −5 min) and at 15 min, 30 min, 1 hr, 1.5 hr, 2 hr, 2.5 hr, 3 hr, 3.5 hr, and 4 hr post-dosing, systolic pressure blood pressure values were recorded.

The mark [3] stands for this setting: compound at 0.1 μM, repeat datapoints each shown, 0.1 µM.
Setting [4] is: read-out: Percentage inhibition of ligand binding, Adrenergic α1D (0.1 μM), compound at 0.1 μM, repeat datapoints each shown.
[5] abbreviates: read-out: Percentage inhibition of ligand binding, Adrenergic α1D (0.03 μM), compound at 0.03 μM, repeat datapoints each shown.
Setting [6] is: SC or PO, 4 hour study period (FIGS. 7-10).
[7] abbreviates: compound at 0.03 μM, repeat assays, each datapoint shown, read-out: Percentage inhibition of ligand binding, Adrenergic α1D.
Where [8] appears, read: compound at 0.1 μM, repeat assays, each datapoint shown, read-out: Percentage inhibition of ligand binding, Adrenergic α1D.

Regarding `C/C(=C\n1c2c(c3cc(C)ccc31)CN(C)CC2)c1ccncn1` [compound 101], the “Percentage inhibition of ligand binding, Adrenergic α1D (0.1 μM)” value (shortened to “Percentage inhibition … (0.1 μM)”) in test [1] (setting [3]) is 48%. In test [1] (setting [4]), the inhibition (as a rule, the change of the read-out against control, counted positive when it falls) at 0.1 µM is 45%.

For `Cc1ccc2c(c1)c1c(n2CC(N)c2ccncc2)CCN(C)C1` (single isomer, unassigned) [27a, 2-(1,2,3,4-tetrahydro-2,8-dimethylpyrido[4,3-b]indol-5-yl)-1-(pyridin-4-yl)ethanamine], the “systolic blood pressure lowering effects” value in test [2] (escalating doses 1, 3, 10 and 30 mg/kg/iv for every 30 minutes (FIGS. 20-22)) is on record as “robust”. In test [2] (when systolic blood pressure falls (data not shown)), the heart rate result was “neutral effect on heart rate”. Consider `Cc1ccc2c(c1)c1c(n2CNc2ccccn2)CCN(C)C1` [compound 120, (2,8-dimethyl-1,2,3,4-tetrahydro-pyrido[4,3-b]indol-5-ylmethyl)-pyridin-2-yl-amine], for which the “Percentage inhibition … (0.1 μM)” value in test [1] (setting [3]) is 26%. Further, in test [1] (setting [5]), the inhibition at 0.03 µM was found to be 3%. In addition, the inhibition at 0.1 µM in test [1] (setting [4]) worked out at 14%. Take `Cc1ccc2c(c1)c1c(n2C2=C(c3ccc4c(ccn4C)c3)CCC2)CCN(C)C1` [compound 191, 2,8-dimethyl-5-(2-(1-methyl-1H-indol-5-yl)cyclopent-1-enyl)-2,3,4,5-tetrahydro-1H-pyrido[4,3-b]indole]: the inhibition at 0.1 µM in test [1] (setting [4]) was determined as 43%. For `Cc1ccc2c(c1)c1c(n2CC(O)c2ccncc2)CCN(C)CC1` (single isomer, unassigned) [13b, 2-(3,9-dimethyl-2,3,4,5-tetrahydroazepino[4,5-b]indol-6(1H)-yl)-1-(pyridin-4-yl)ethanol], the systolic blood pressure entry in test [2] (setting [6]) is on record as “lowered systolic blood pressure”. With `C/C(=C\n1c2c(c3cc(C)ccc31)CN(C)CC2)c1cnc(N(C)C)nc1` [compound 187], in test [1] (setting [4]), the inhibition at 0.1 µM was 83%. As to `Cc1cnc2c(c1)c1c(n2CCc2ccc(C)nc2)CCN2CCCC12` (single isomer, unassigned) [74a, 10-methyl-7-(2-(6-methylpyridin-3-yl)ethyl)-2,3,5,6,7,11c-hexahydro-1H-pyrido[3′,2′:4,5]pyrrolo[2,3-g]indolizine], the inhibition at 0.03 µM in test [1] (setting [7]) stood at 42%. For the same compound, the inhibition at 0.1 µM in test [1] (setting [8]) turned out to be 61%. With `C/C(=C\n1c2c(c3cc(C)ccc31)CN(C)CC2)c1ccc(C)nc1` [compound 186], the “Percentage inhibition … (0.1 μM)” value in test [1] (setting [3]) is 55%. For the same compound, the inhibition at 0.03 µM in test [1] (setting [5]) is 31%. For the same compound, in test [1] (setting [4]), the inhibition at 0.1 µM was 51%. For the compound `CN1CCc2c(c3cccc(Cl)c3n2CCc2ccccc2)C1` [compound 216], the inhibition at 0.03 µM in test [1] (setting [5]) was 38%. Turning to `C/C(=C\n1c2c(c3cc(C)ccc31)CN(C)CC2)c1sccc1C` [compound 189], in test [1] (setting [4]), the inhibition at 0.1 µM worked out at 16%. Regarding `CN1CCc2c(n(CC(O)c3ccncc3)c3ccc(Cl)cc23)C1` (single isomer, unassigned) [41a], the systolic blood pressure entry in test [2] (setting [6]) was “markedly lowered blood pressure”. Turning to `Cc1ccc(C(O)Cn2c3c(c4cc(C)ccc42)CN(C)CC3)cc1` (racemic) [compound 183, racemic-2-(1,2,3,4-tetrahydro-2,8-dimethylpyrido[4,3-b]indol-5-yl)-1-p-tolylethanol], in test [1] (setting [4]), the inhibition at 0.1 µM is 36%. For the compound `CCN1CCc2c(c3cc(C)ccc3n2CCc2ccccc2)C1` [compound 201], the inhibition at 0.1 µM in test [1] (setting [4]) worked out at 18%.

As to `Cc1cnc2c(c1)c1c(n2CCc2ccc(C)nc2)CCN(C)C1` [II-110, 3,6-dimethyl-9-(2-(6-methylpyridin-3-yl)ethyl)-6,7,8,9-tetrahydro-5H-pyrrolo[2,3-b:4,5-c′]dipyridine], the inhibition at 0.1 µM in test [1] (setting [4]) was 17%. Regarding `Cc1ccc2c(c1)c1c(n2CC(C)(O)c2ccc(O)cc2)CCN(C)C1` (stereo not drawn) [compound 98], in test [1] (setting [3]), the “Percentage inhibition … (0.1 μM)” value is given as 35%. Also, the inhibition at 0.1 µM in test [1] (setting [4]) came to 31%. As for `Cc1ccc2c(c1)c1c(n2CC(O)c2ccc(C(N)=O)nc2)CCN(C)C1` (single isomer, unassigned) [144b, 5-[2-(2,8-dimethyl-1,2,3,4-tetrahydro-pyrido[4,3-b]indol-5-yl)-1-hydroxy-ethyl]-pyridine-2-carboxylic acid amide], the systolic blood pressure result in test [2] (i.v. bolus in 2 minutes (FIG. 19)) is “marked reduction in systolic blood pressure”. Take `CCN1CCc2c(c3cc(C)ccc3n2CCc2ccncc2)C1` [compound 85]: the inhibition at 0.1 µM in test [1] (setting [8]) is 17%. In the case of `Cc1ccc(CCn2c3c(c4ccccc42)CN(C)CC3)cc1` [compound 181, 2,3,4,5-Tetrahydro-2-methyl-5-(4-methylphenethyl)-1H-pyrido[4,3-b]indole], the inhibition at 0.1 µM in test [1] (setting [4]) was 32%.

Regarding `CCN1CCc2c(c3cc(C)ccc3n2CCc2ccc(C)cc2)C1` [compound 202], the inhibition at 0.1 µM in test [1] (setting [4]) came out at 52%. On to `Cc1ccc2c(c1)c1c(n2CC(C)(O)c2cccnc2)CCN(C)C1` (stereo not drawn) [compound 5, 1-(1,2,3,4-tetrahydro-2,8-dimethylpyrido[4,3-b]indol-5-yl)-2-(pyridin-3-yl)propan-2-ol], for which the inhibition at 0.1 µM in test [1] (setting [8]) was 4%. Regarding `Cc1ccc2c(c1)c1c(n2CCc2ccc(CO)nc2)CCN(C)C1` [compound 91], the “Percentage inhibition of ligand binding, Adrenergic α1D” value in test [1] (compound at 0.03 μM, repeat assays, each datapoint shown, 0.03 µM) is 11%; in test [1] (compound at 0.1 μM, repeat assays, each datapoint shown, 0.1 µM), 30%. In addition, the inhibition at 0.03 µM in test [1] (setting [7]) was 7%; in test [1] (setting [5]) it was 21%. Besides, the inhibition at 0.1 µM stood at 25% in test [1] (setting [8]) and 32% in test [1] (setting [4]). As for `Cc1ccc2c(c1)c1c(n2CCc2cccnc2)CCN(C)C1` [compound 61], the inhibition at 0.03 µM in test [1] (setting [7]) worked out at 14%. Moreover, in test [1] (setting [8]), the inhibition at 0.1 µM was found to be 37%. `COc1ccc(/C(C)=C/n2c3c(c4cc(C)ccc42)CCN(C)CC3)cc1F` [compound 241]: the “Percentage inhibition … (0.1 μM)” value in test [1] (setting [3]) was found to be 49%. In addition, the inhibition at 0.1 µM in test [1] (setting [4]) worked out at 47%. The matching figures for `COc1ccc(/C(C)=C/n2c3c(c4cc(Cl)ccc42)CCN(C)CC3)cc1F` [compound 240]: 47% and 44%. In the case of `Cc1ccc2c(c1)c1c(n2CC2(c3ccccc3)OCCO2)CCN(C)C1` [compound 83], the inhibition at 0.1 µM in test [1] (setting [8]) is 13%.

For the compound `C/C(=C\n1c2c(c3cc(Cl)ccc31)CN(C)CC2)c1ccncc1` [compound 185, 8-chloro-2,3,4,5-tetrahydro-2-methyl-5-((E)-2-(pyridin-4-yl)prop-1-enyl)-1H-pyrido[4,3-b]indole], in test [1] (setting [5]), the inhibition at 0.03 µM was 47%. Also, in test [1] (setting [4]), the inhibition at 0.1 µM is 58%. As to `Cc1ccc2c(c1)c1c(n2C2=C(c3ccncc3)CCC2)CCN(C)C1` [compound 114], the inhibition at 0.1 µM in test [1] (setting [4]) turned out to be 15%. Take `Cc1ccc(CCn2c3c(c4cc(C)ccc42)CN(C)CC3)cc1` [compound 180, 2,3,4,5-tetrahydro-2,8-dimethyl-5-(4-methylphenethyl)-1H-pyrido[4,3-b]indole]: the inhibition at 0.1 µM in test [1] (setting [4]) is 74%. Still for that read-out and setting: in the case of `CCN1CCc2c(c3cc(C)ccc3n2CC(O)c2ccc(C)cc2)C1` (stereo not drawn) [compound 203] it was 47%; in that of `Cc1ccc2c(c1)c1c(n2C2=C(c3ccc(C)s3)CCC2)CCN(C)C1` [compound 190, 2,8-dimethyl-5-(2-(5-methylthiophen-2-yl)cyclopent-1-enyl)-2,3,4,5-tetrahydro-1H-pyrido[4,3-b]indole], 31%. Turning to `CN1CCc2c(c3ccccc3n2CCc2ccccc2)C1` [compound 182, 2,3,4,5-Tetrahydro-2-methyl-5-phenethyl-1H-pyrido[4,3-b]indole], in test [1] (setting [4]), the inhibition at 0.1 µM stood at 16%.
